Type in all cases: binding, mouse
The subject of assay [1] is monoclonal antibody Sol-8. In words: competitive inhibition ELISA (c-ELISA), monoclonal antibody Sol-8. The following applies: Sol-8 (IgG2a); ± one standard deviation. The protocol: (§1) Five, 6 month old BALB/c mice were injected with 50 μl of the solanidine-KLH conjugate mixed 1:1 with Ribi adjuvant (Ribi Immunochem Research Inc., Hamilton, Mont.). The mice received half the dose intraperitoneally and half intramuscularly every other week for a total of three injections. One month later, and 4 days prior to fusion, a selected mouse was given an intraperitoneal injection of 50 μl of solanidine-KLHconjugate in sterile saline. The spleen was removed and the splenocytes fused with SP2/O myeloma cells as described by Stanker et al. (1986, J. Immunol., 136:4174-4180), the contents of which are incorporated by reference herein. The fused cells were plated over 30 96-well microculture plates previously coated with mouse peritoneal exudate cells (macrophage) and grown under conditions described by Elissalde et al. (1993, J. Agric. Food Chem., 41:2167-2171), the contents of which are also incorporated by reference herein.
(§2) db-ELISA. A modification of a direct-binding ELISA described by Stanker et al. (1993, J. Agric. Food Chem., 41:1332-1336), the contents of which are incorporated by reference herein, was used to screen the culture fluids from the growing hybridomas for antibodies to solanidine. Microtiter plates (Nunc Maxisorb, Roskilde, Denmark; or Costar high binding plates, Costar Corp., Wilmington, Mass.) were coated with SOL-BSA by addition of 100 μl/well of a 1 μg/ml solution of SOL-BSA in distilled water. The SOL-BSA was incubated in uncovered plates at 37° C. for 18 hr to evaporate the liquid and allow the SOL-BSA to coat the bottom of the microtiter wells. The "coated" plates were then stored in sealed plastic bags at 4° C. and used within 2 weeks. Nonreacted sites on the plates were blocked by adding 400 μl of a 3% solution of nonfat dry milk (NFDM) in assay buffer (0.1M Tris, 0.15M NaCl, 10 mg/ml nonfat dry milk, 0.001% Tween 20, 0.02% sodium azide) and incubating the plates at room temperature for 1 hr. The blocking solution was then discarded and 100 μl of the hybridoma supernatant(s) or anti-solanidine Mab (from ascites fluid) was added, and the plates incubated for 1 hr at 37° C. After incubation, the plates were washed with a solution of 0.05% TWEEN-20 in water, and peroxidase conjugated goat anti-mouse antiserum (Sigma Inc., St. Louis, Mo.), diluted 1:500 in assay buffer, was then added to each well. Following a second 1 hr incubation at 37° C., the plates were washed as described above. Finally, the substrate, 2,2'-azino-bis(ethylbenzthiazole-6-sulfonic acid) (ABTS), was added. Absorbance was measured at 405 nm and the resulting data analyzed by computer using an Excel (Microsoft, Redmond, Wash.) spreadsheet program.
(§3) c-ELISA. The competitive inhibition ELISA for solanidine and other glycoalkaloids was carried out as previously described for other compounds by Stanker et al. (1993, ibid). Briefly, to each well of an antigen (glycoalkaloid or aglycone) coated, non-fat-milk-blocked, microtiter plate prepared as described in the db-ELISA was added 100 μl of assay buffer. Competitors (free solanidine and other glycoalkaloids and aglycones, and four structurally related steroids cholesterol, digitonin, βsitosterol, and stigmasterol, shown in Table 1) dissolved in 100 μl of assay buffer were added to the microassay plate and serially diluted (a 2-fold series). Next, 100 μl of assay buffer containing a predetermined amount of anti-solanidine monoclonal antibody prepared above was added to each well. The amount of anti-alkaloid antibody added was the concentration (dilution from tissue culture supernatant) resulting in approximately 50% of maximum binding or signal in a direct-binding ELISA where no competitor was present. The plates were sealed with plastic wrap, incubated for 1 hr at 37° C., and then processed as described in the db-ELISA to detect bound antibody. […]
(In an ELISA, binding on a coated surface is turned into a signal by an enzyme label.)

The subject of assay [2] is monoclonal antibody Sol-54. Briefly: competitive inhibition ELISA (c-ELISA), monoclonal antibody Sol-54. The settings on record: Sol-54 (IgG2a); ± one standard deviation. How it is done: as §1, §2, §3
The subject of assay [3] is monoclonal antibody Sol-55. In words: competitive inhibition ELISA (c-ELISA), monoclonal antibody Sol-55. The following applies: Sol-55 (IgG2a); ± one standard deviation. How it is done:
as §1, §2, §3

Assay [4] relates to monoclonal antibody Sol-59. In words: competitive inhibition ELISA (c-ELISA), monoclonal antibody Sol-59. The following applies: Sol-59 (IgG2a); ± one standard deviation. The protocol: as §1, §2, §3
Assay [5] relates to monoclonal antibody Sol-67. In words: competitive inhibition ELISA (c-ELISA), monoclonal antibody Sol-67. The settings on record: Sol-67 (IgG1); ± one standard deviation. How it is done: as §1, §2, §3
The subject of assay [6] is monoclonal antibody Sol-68. Briefly: competitive inhibition ELISA (c-ELISA), monoclonal antibody Sol-68. The following applies: Sol-68 (IgG1); ± one standard deviation. How it is done:
as §1, §2, §3

The subject of assay [7] is monoclonal antibody Sol-71. In words: competitive inhibition ELISA (c-ELISA), monoclonal antibody Sol-71. The following applies: Sol-71 (IgG2a); ± one standard deviation. The protocol: as §1, §2, §3
For assay [8], the system named is monoclonal antibody Sol-91. In words: competitive inhibition ELISA (c-ELISA), monoclonal antibody Sol-91. The settings on record: Sol-91 (IgG2a); ± one standard deviation. How it is done: as §1, §2, §3
In assay [9] the test system is monoclonal antibody Sol-106. In words: competitive inhibition ELISA (c-ELISA), monoclonal antibody Sol-106. The settings on record: Sol-106 (IgG2a); ± one standard deviation. The protocol: as §1, §2, §3
For assay [10], the system named is monoclonal antibody Sol-129. Briefly: competitive inhibition ELISA (c-ELISA), monoclonal antibody Sol-129. The following applies: for IC50: Sol-129 (IgG1), ± one standard deviation. The protocol: as §1, §2, §3
Assay [11] relates to eleven monoclonal antibodies. In words: competitive inhibition ELISA (c-ELISA), all eleven monoclonal antibodies. The settings on record: in words. The protocol: as §1, §2
c-ELISA. […]

Assay [12] deals with monoclonal antibody Sol-48. In words: competitive inhibition ELISA (c-ELISA), monoclonal antibody Sol-48. The settings on record: Sol-48 (IgG2a); ± one standard deviation. The protocol: as §1, §2, §3

Entries after “also recorded” stand apart in the source; their conditions may differ.

Take `CC(C)CCC[C@@H](C)[C@H]1CC[C@H]2[C@@H]3CC=C4C[C@@H](O)CC[C@]4(C)[C@H]3CC[C@]12C` [cholesterol]: the IC50 entry in assay [1], in [2], in assay [3], in assay [4], in assay [5] and in assay [6] was “nc (no competition at 10,000 ppb)” throughout. Moreover, the IC50 result in assay [7], in assay [8], in assay [9] and in [10] was “nc (no competition at 10,000 ppb)” throughout. In addition, the “cross-reaction of the antibodies” value in assay [11] is recorded as “None of the eleven antibodies cross-reacted”.

As for `C[C@@H]1CC[C@@]2(OC1)O[C@H]1[C@@H](O)[C@H]3[C@@H]4CC[C@H]5C[C@@H](O[C@@H]6O[C@H](CO)[C@H](O[C@@H]7O[C@H](CO)[C@@H](O)[C@H](O[C@@H]8OC[C@@H](O)[C@H](O)[C@H]8O)[C@H]7O[C@@H]7O[C@H](CO)[C@H](O)[C@H](O[C@@H]8O[C@H](CO)[C@@H](O)[C@H](O)[C@H]8O)[C@H]7O)[C@H](O)[C@H]6O)[C@H](O)C[C@]5(C)[C@H]4CC[C@]3(C)[C@H]1[C@@H]2C` [digitonin], the IC50 result in [1], in assay [2], in assay [3], in [4], in assay [5] and in assay [6] was “nc (no competition at 10,000 ppb)” throughout. Also, the IC50 result in assay [7], in [8], in assay [9] and in [10] was “nc (no competition at 10,000 ppb)” each time. Besides, the “cross-reaction of the antibodies” value in assay [11] was “None of the eleven antibodies cross-reacted”.

For the molecule `CC[C@H](/C=C/[C@@H](C)[C@H]1CC[C@H]2[C@@H]3CC=C4C[C@@H](O)CC[C@]4(C)[C@H]3CC[C@]12C)C(C)C` [stigmasterol], the IC50 entry in [1], in [2], in assay [3], in [4], in [5] and in assay [6] was “nc (no competition at 10,000 ppb)” throughout. Also, the IC50 result in [7], in assay [8], in assay [9] and in assay [10] was “nc (no competition at 10,000 ppb)” throughout. Besides, in assay [11], the “cross-reaction of the antibodies” value was “None of the eleven antibodies cross-reacted”.

Consider `C[C@H]1CC[C@@H]2[C@@H](C)[C@H]3[C@H](C[C@H]4[C@@H]5CC=C6C[C@@H](O[C@@H]7O[C@H](CO)[C@H](O)[C@H](O[C@@H]8O[C@H](CO)[C@@H](O)[C@H](O)[C@H]8O)[C@H]7O[C@@H]7O[C@@H](C)[C@H](O)[C@@H](O)[C@H]7O)CC[C@]6(C)[C@H]5CC[C@]34C)N2C1` [α-solanine], for which the IC50 in assay [1] worked out at 253 ± 64 ppb; in assay [12] it was 436 ± 135 ppb; in assay [2], 215 ± 32 ppb; in assay [3], 118 ± 18 ppb; in assay [4], 35 ± 8 ppb; in [5], 27.8 ppb. In addition, the IC50 result in [6] was “nc (no competition at 10,000 ppb)”; in assay [7], “nc (no competition at 10,000 ppb)”; in assay [8] it was 104 ± 18 ppb; in assay [9], 49 ± 8 ppb; in assay [10] it was 2.6 ± 0.25 ppb. Moreover, the “relative affinity of Sol-129” value in [10] (Sol-129, in words) is listed as “high affinity”.

For `C[C@H]1CC[C@]2(NC1)O[C@H]1C[C@H]3[C@@H]4CC[C@H]5C[C@@H](O[C@@H]6O[C@H](CO)[C@H](O[C@@H]7O[C@H](CO)[C@@H](O)[C@H](O[C@@H]8OC[C@@H](O)[C@H](O)[C@H]8O)[C@H]7O[C@@H]7O[C@H](CO)[C@@H](O)[C@H](O)[C@H]7O)[C@H](O)[C@H]6O)CC[C@]5(C)[C@H]4CC[C@]3(C)[C@H]1[C@@H]2C` [α-tomatine], the IC50 entry in assay [1], in assay [12], in assay [2], in assay [3], in [4] and in assay [5] was “nc (no competition at 10,000 ppb)” each time. Moreover, the IC50 entry is “nc (no competition at 10,000 ppb)” in [6]; “nc (no competition at 10,000 ppb)” in [7]; “nc (no competition at 10,000 ppb)” in assay [8]; “nc (no competition at 10,000 ppb)” in [9]; 5.4 ± 3.5 ppb in assay [10]. For the same molecule, the “binding by Sol-129” value in assay [10] (Sol-129, in words) is listed as “specifically bound; also recorded: Sol-129 was the only antibody capable of binding”. Moreover, the “relative affinity of Sol-129” value in assay [10] (Sol-129, in words) is recorded as “approximately the same affinity as the potato glycoalkaloids”.

As to `CC[C@H](CC[C@@H](C)[C@H]1CC[C@H]2[C@@H]3CC=C4C[C@@H](O)CC[C@]4(C)[C@H]3CC[C@]12C)C(C)C` [β-sitosterol], the IC50 entry in assay [1], in [2], in [3], in assay [4], in [5] and in assay [6] was “nc (no competition at 10,000 ppb)” in each case. The IC50 result in assay [7], in [8], in [9] and in assay [10] was “nc (no competition at 10,000 ppb)” each time. Further, the “cross-reaction of the antibodies” value in assay [11] is on record as “None of the eleven antibodies cross-reacted”.
